# Columns and labels:
# Myzus persicae [1] = assay: Systemic action against Myzus persicae (roots in spray mixture); assay type: in vivo; conditions: systemic: pea seedling roots in 400 ppm spray mixture, 20° C., evaluation 3 to 7 days later, read-out: percentage reduction in the population (% activity)
# Experimental: (§1) Systemic action against Myzus persicae Pea seedlings are infested with Myzus persicae, then placed with their roots in a spray mixture comprising 400 ppm of test compound and then incubated at 20° C. Evaluation is made 3 to 7 days later. The percentage reduction in the population (% activity) is determined by comparing the number of dead aphids on the treated plants with that on untreated plants.
# Plutella xylostella = assay: Action against Plutella xylostella caterpillars; assay type: in vivo; conditions: 72 h, 400 ppm spray on young cabbage plants, 10 caterpillars in the third stage, evaluation 3 days later, read-out: percentage reduction in the population and percentage reduction in feeding damage (% activity)
# Experimental: (§2) Action against Plutella xylostella caterpillars Young cabbage plants are sprayed with an aqueous emulsion comprising 400 ppm of test compound. After the spray coating has dried, the cabbage plants are populated with 10 Plutella xylostella caterpillars in the third stage and placed in a plastics container. Evaluation is made 3 days later. The percentage reduction in the population and the percentage reduction in feeding damage (% activity) are determined by comparing the number of dead caterpillars and the feeding damage on the treated plants with that on untreated plants.
# Ctenocephalides felis = assay: Systemic action against Ctenocephalides felis (membrane blood feeding); assay type: in vivo; conditions: 50 ppm in blood, 37°, 20 adult fleas, evaluation 24 and 48 hours, read-out: percentage reduction in the population (% activity)
# Experimental: Systemic action against Ctenocephalides felis 20 adult fleas of the Ctenocephalides felis species are placed in a flat round cage closed on both sides with gauze. A vessel sealed on the underside with a parafilm membrane is placed on the cage. The vessel contains blood comprising 50 ppm of test compound and maintained at a constant 37°. The fleas ingest the blood through the membrane. Evaluation is made 24 and 48 hours after the start of the test. The percentage reduction in the population (% activity) is determined by comparing the number of dead Ctenocephalides felis fleas when treated blood is used with that when untreated blood is used. The blood is replaced by fresh treated blood 24 hours after treatment.
# Nilaparvata lugens = assay: Action against Nilaparvata lugens (sprayed rice plants); assay type: in vivo; conditions: 504 h, 400 ppm spray on rice plants, larvae in the 2nd and 3rd stages, evaluation 21 days later, read-out: percentage reduction in the population (% activity)
# Experimental: (§3) Action against Nilaparvata lugens Rice plants are sprayed with an aqueous emulsion comprising 400 ppm of test compound. After the spray coating has dried, the rice plants are populated with Nilaparvata lugens larvae in the 2nd and 3rd stages. Evaluation is made 21 days later. The percentage reduction in the population (% activity) is determined by comparing the number of surviving plant hoppers on the treated plants with that on untreated plants.
# Aphis craccivora = assay: Action against Aphis craccivora (sprayed pea seedlings); assay type: in vivo; conditions: 400 ppm spray on infested pea seedlings, 20° C., evaluation 3 to 7 days later, read-out: percentage reduction in the population (% activity)
# Experimental: as §1, with “Action” for “Systemic action”, “Aphis craccivora” for “Myzus persicae”, “Aphis craccivora,” for “Myzus persicae,”, “sprayed” for “placed”, “with” for “with their roots in”, “Aphis craccivora individuals” for “aphids”
# Myzus persicae [2] = assay: Action against Myzus persicae (sprayed pea seedlings); assay type: in vivo; conditions: 400 ppm spray on infested pea seedlings, 20°, evaluation 3 to 7 days later, read-out: percentage reduction in the population (% activity)
# Experimental: as §1, with “Action” for “Systemic action”, “sprayed” for “placed”, “with” for “with their roots in”, “20°.” for “20° C.”
# Nephotettix cincticeps = assay: Action against Nephotettix cincticeps (sprayed rice plants); assay type: in vivo; conditions: 504 h, 400 ppm spray on rice plants, larvae in the 2nd and 3rd stages, evaluation 21 days later, read-out: percentage reduction in the population (% activity)
# Experimental: as §3, with “against Nephotettix cincticeps” for “against Nilaparvata lugens”, “the” for “the rice”, “with Nephotettix cincticeps” for “with Nilaparvata lugens”, “surviving leaf” for “surviving plant”
# Anthonomus grandis = assay: Action against Anthonomus grandis (sprayed cotton plants); assay type: in vivo; conditions: 72 h, 400 ppm spray on young cotton plants, 10 adults, evaluation 3 days later, read-out: percentage reduction in the population and percentage reduction in feeding damage (% activity)
# Experimental: as §2, with “Anthonomus […]” for “Plutella xylostella caterpillars”, “cotton” for “cabbage”, “the” for “the cabbage”, “Anthonomus grandis adults” for “Plutella xylostella caterpillars in the third stage”, “beetles” for “caterpillars”
# Heliothis virescens = assay: Action against Heliothis virescens (sprayed soybean plants); assay type: in vivo; conditions: 144 h, 400 ppm spray on young soybean plants, 10 caterpillars in the first stage, evaluation 6 days later, read-out: percentage reduction in the population and percentage reduction in feeding damage (% activity)
# Experimental: as §2, with “against Heliothis virescens” for “against Plutella xylostella caterpillars”, “Young soybean” for “Young cabbage”, “the” for “the cabbage”, “10 Heliothis virescens” for “10 Plutella xylostella”, “the first” for “the third”, “made 6” for “made 3”
# Diabrotica balteata = assay: Action against Diabrotica balteata (sprayed maize seedlings); assay type: in vivo; conditions: 144 h, 400 ppm spray on maize seedlings, 10 larvae in the second stage, evaluation 6 days later, read-out: percentage reduction in the population (% activity)
# Experimental: Action against Diabrotica balteata Maize seedlings are sprayed with an aqueous emulsion comprising 400 ppm of test compound. After the spray coating has dried, the seedlings are populated with 10 Diabrotica balteata larvae in the second stage and placed in a plastics container. Evaluation is made 6 days later. The percentage reduction in the population (% activity) is determined by comparing the number of dead larvae on the treated plants with that on untreated plants.
Structure (SMILES),melting point [°C],inhibition at 400 ppm (Myzus persicae [1]) [%],inhibition at 400 ppm (Plutella xylostella) [%],inhibition at 50 ppm (Ctenocephalides felis) [%],inhibition at 400 ppm (Nilaparvata lugens) [%],inhibition at 400 ppm (Aphis craccivora) [%],inhibition at 400 ppm (Myzus persicae [2]) [%],inhibition at 400 ppm (Nephotettix cincticeps) [%],inhibition at 400 ppm (Anthonomus grandis) [%],inhibition at 400 ppm (Heliothis virescens) [%],inhibition at 400 ppm (Diabrotica balteata) [%]
"O=[N+]([O-])/C=C1\NCCC1Cc1ccc(Cl)nc1 (stereo not shown) [Compound 5.3, 3-(2-Chloropyrid-5-yl-methyl)2-nitromethylidene-pyrrolidine]",159 to 161,> 80,> 80,> 80,> 80,> 80,> 80,> 80,> 80,> 80,
"CN1CCC(Cc2ccc(Cl)nc2)/C1=C/[N+](=O)[O-] (stereo not shown) [Compound 5.4, 3-(2-Chloropyrid-5-yl-methyl)-1methyl-2-nitromethylidene-pyrrolidine]",,> 80,,,> 80,,> 80,> 80,> 80,,
"CCN1CCC(Cc2ccc(Cl)nc2)/C1=C/[N+](=O)[O-] (stereo not shown) [Compound 5.5, 3-(2-Chloropyrid-5-yl-methyl)-1-ethyl-2-nitromethylidene-pyrrolidine]",,,,,,,,> 80,,,
"O=[N+]([O-])C=C1NCCCC1Cc1ccc(Cl)nc1 (stereo not shown) [Compound 5.16, 3-(2-chloropyrid-5-yl-methyl)-2-nitromethylidene-piperidine]",179 to 181,,,,,,> 80,,,,> 80
